Measurements published in patent US20250171462A1 (NICO Therapeutics, Inc., priority 2022, published 2025).
Like-named read-outs stand apart in the source and are kept apart here.

Target: T1, full-length SARM1 (FL-SARM1) (Homo sapiens, UniProt Q6SZW1)
T1 sequence (Q6SZW1 28-724): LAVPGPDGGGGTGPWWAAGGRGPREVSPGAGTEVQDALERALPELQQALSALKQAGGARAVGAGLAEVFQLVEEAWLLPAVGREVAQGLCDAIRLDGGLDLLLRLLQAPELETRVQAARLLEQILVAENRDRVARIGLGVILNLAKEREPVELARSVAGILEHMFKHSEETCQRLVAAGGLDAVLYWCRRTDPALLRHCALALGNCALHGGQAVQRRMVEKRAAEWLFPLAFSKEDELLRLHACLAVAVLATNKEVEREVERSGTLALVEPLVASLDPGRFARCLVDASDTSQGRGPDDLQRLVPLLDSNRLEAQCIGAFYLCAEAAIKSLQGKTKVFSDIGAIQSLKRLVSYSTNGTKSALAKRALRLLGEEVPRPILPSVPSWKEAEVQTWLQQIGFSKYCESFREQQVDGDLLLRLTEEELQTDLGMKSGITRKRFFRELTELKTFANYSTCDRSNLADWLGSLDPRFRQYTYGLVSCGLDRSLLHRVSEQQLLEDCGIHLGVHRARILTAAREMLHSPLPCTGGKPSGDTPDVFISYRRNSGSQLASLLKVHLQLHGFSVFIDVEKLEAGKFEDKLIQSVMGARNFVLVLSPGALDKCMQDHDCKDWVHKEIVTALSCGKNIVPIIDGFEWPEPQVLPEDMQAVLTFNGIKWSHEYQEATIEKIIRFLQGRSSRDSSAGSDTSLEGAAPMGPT
Assay: FL-SARM1 cellular lysate assay (NAD/NADH-Glo detection of remaining NAD+, NMN-activated)

[1] = Activity (IC50 class), 11 point curve
[2] = Activity (μM) (IC50), 11 point curve
[3] = read-out: Activity (IC50 class), 11 point curve

SMILES | IC50 [1] [µM] | IC50 [2] [µM] | IC50 [3] [µM]
Cc1ccc(NC(=O)[C@@H]2C[C@@H]2C(F)(F)F)cc1-c1ccccn1 (racemic) [Example 124, cis-N-(4-methyl-3-pyridin-2-ylphenyl)-2-(trifluoromethyl)cyclopropane-1-carboxamide] | 1 to 10 | 3.1 | 
Cc1ccc(NC(=O)N2[C@@H]3C[C@@H](C)C[C@H]2C3)cc1-c1nccc(C2CC2)n1 [Example 236, cis-N-[3-(4-cyclopropylpyrimidin-2-yl)-4-methylphenyl]-3-methyl-6-azabicyclo[3.1.1]heptane-6-carboxamide] |  | 0.7 | 0.0001 to 1
Cc1cnc(-c2cc(NC(=O)N3[C@@H]4C[C@@H](C)C[C@H]3C4)c(F)cc2Cl)nn1 [Example 320] |  | 0.6 | 0.0001 to 1
Cc1ccc(NC(=O)N2C3CCCC2C3)cc1-c1cccnn1 [Example 54, N-(4-methyl-3-(pyridazin-3-yl)phenyl)-6-azabicyclo[3.1.1]heptane-6-carboxamide] |  | 0.5 | 0.0001 to 1
Cc1ccc(NC(=O)N2C3C[C@H](OC(F)F)C[C@H]2C3)cc1-c1ccccn1 [Example 29, trans-3-(difluoromethoxy)-N-(4-methyl-3-(pyridin-2-yl)phenyl)-6-azabicyclo[3.1.1]heptane-6-carboxamide] |  | 0.06 | 0.0001 to 1
Cc1ccc(NC(=O)N2C3C[C@H](O)C[C@H]2C3)cc1-c1ccccn1 [Example 39, trans-3-hydroxy-N-(4-methyl-3-(pyridin-2-yl)phenyl)-6-azabicyclo[3.1.1]heptane-6-carboxamide] | 1 to 10 | 3.8 | 
Cc1ccc(NC(=O)N2CC3CC(C)C2C3)cc1-c1ccccn1 (single isomer, unassigned) [Example 12, 6-methyl-N-(4-methyl-3-(pyridin-2-yl)phenyl)-2-azabicyclo[2.2.1]heptane-2-carboxamide] | 1 to 10 | 2 | 
Cc1cc(F)c(NC(=O)N2CCOc3cccnc3C2C)cc1-c1cccnn1 (centres unmarked) [Example 182, N-(2-fluoro-4-methyl-5-(pyridazin-3-yl)phenyl)-5-methyl-2,3-dihydropyrido[2,3-f][1,4]oxazepine-4(5H)-carboxamide] | 1 to 10 | 6 | 
Cc1ccc(NC(=O)N2[C@@H]3C[C@@H](F)C[C@H]2C3)cc1-c1ccccn1 [Example 27, cis-3-fluoro-N-(4-methyl-3-(pyridin-2-yl)phenyl)-6-azabicyclo[3.1.1]heptane-6-carboxamide] |  | 0.1 | 0.0001 to 1
Cc1ccc(NC(=O)N2C3C[C@@H](C)C[C@H]2C3)cc1-c1cc(Cl)cnn1 [Example 216, cis-N-(3-(5-chloropyridazin-3-yl)-4-methylphenyl)-3-methyl-6-azabicyclo[3.1.1]heptane-6-carboxamide] |  | 0.01 | 0.0001 to 1
O=C(Nc1ccc(C2CC2)c(-c2ccccn2)c1)N1C2CCCC1C2 [Example 34, N-(4-cyclopropyl-3-(pyridin-2-yl)phenyl)-6-azabicyclo[3.1.1]heptane-6-carboxamide] | 1 to 10 | 1.1 | 
Cc1cc(F)c(NC(=O)N2C3CCCC2C3)cc1-c1ncncn1 [Example 181, N-(2-fluoro-4-methyl-5-(1,3,5-triazin-2-yl)phenyl)-6-azabicyclo[3.1.1]heptane-6-carboxamide] | 1 to 10 | 7 | 
CC1CCCCCN1C(=O)Nc1ccc(C(F)(F)F)c(-c2ncc(F)cn2)c1 (racemic) [Example 312, N-(3-(5-fluoropyrimidin-2-yl)-4-(trifluoromethyl)phenyl)-2-methylazepane-1-carboxamide] | 1 to 10 | 1.4 | 
Cc1ccc(NC(=O)C2CC3CC[C@H]2C3)cc1-c1ccccn1 (single isomer, unassigned) [Example 137, trans-N-(4-methyl-3-pyridin-2-ylphenyl)bicyclo[2.2.1]heptane-2-carboxamide] |  | 0.1 | 0.0001 to 1
Cc1ccc(NC(=O)C2[C@@H]3CC[C@@]2(c2ccnn2C)C3)cc1-c1ncc(F)cn1 (single isomer, unassigned) [Example 203, N-[3-(5-fluoropyrimidin-2-yl)-4-methylphenyl]-1-(2-methylpyrazol-3-yl)bicyclo[2.1.1]hexane-5-carboxamide] | > 10 | > 50 | 
Cc1ccc(NC(=O)[C@H]2C[C@@H]2C2CC2)cc1-c1cccnn1 (racemic) [Example 283, trans-2-cyclopropyl-N-(4-methyl-3-pyridazin-3-ylphenyl)cyclopropane-1-carboxamide] | > 10 | 11 | 
Cc1ccc(NC(=O)N2CC3CC3(c3ccccc3)C2)cc1-c1ccccn1 (centres unmarked) [Example 94, N-(4-methyl-3-pyridin-2-ylphenyl)-1-phenyl-3-azabicyclo[3.1.0]hexane-3-carboxamide] | > 10 | 15 | 
Cc1ccc(NC(=O)N2C3CC(C)CC2(C(C)O)C3)cc1-c1ncc(F)cn1 (single isomer, unassigned) [Example 194, cis-N-(3-(5-fluoropyrimidin-2-yl)-4-methylphenyl)-1-(1-hydroxyethyl)-3-methyl-6-azabicyclo[3.1.1]heptane-6-carboxamide] |  | 0.01 | 0.0001 to 1
Cc1ccc(NC(=O)N2CC(C3CC3)C2)cc1-c1ccccn1 [Example 25, 3-cyclopropyl-N-(4-methyl-3-(pyridin-2-yl)phenyl)azetidine-1-carboxamide] | 1 to 10 | 6.7 | 
Cc1cc(F)c(NC(=O)N2[C@@H]3C[C@@H](C)C[C@H]2C3)cc1-c1cncnn1 [Example 221, cis-N-[2-fluoro-4-methyl-5-(1,2,4-triazin-6-yl)phenyl]-3-methyl-6-azabicyclo[3.1.1]heptane-6-carboxamide] |  | 0.6 | 0.0001 to 1
Cc1ccc(NC(=O)N2C3CCCC2CC3)cc1-c1ccc(F)cn1 [Example 14, N-(3-(5-fluoropyridin-2-yl)-4-methylphenyl)-8-azabicyclo[3.2.1]octane-8-carboxamide] |  | 0.1 | 0.0001 to 1
Cc1ccc(NC(=O)[C@H]2C[C@H]3C[C@H]3N2)cc1-c1ncc(F)cn1 [Example 170, (1R,3R,5R)—N-(3-(5-fluoropyrimidin-2-yl)-4-methylphenyl)-2-azabicyclo[3.1.0]hexane-3-carboxamide] | 1 to 10 | 2.7 | 
Cc1cccc(-c2cc(NC(=O)[C@@H]3CC3(F)F)ccc2C)n1 [Example 163, (1S)-2,2-difluoro-N-[4-methyl-3-(6-methylpyridin-2-yl)phenyl]cyclopropane-1-carboxamide] | > 10 | 26 | 
Cc1ccc(NC(=O)[C@H]2C[C@H](C3CC3)C2)cc1-c1ccccn1 (single isomer, unassigned) [Example 121, trans-3-cyclopropyl-N-(4-methyl-3-pyridin-2-ylphenyl)cyclobutane-1-carboxamide] |  | 0.9 | 0.0001 to 1
Cc1ccc(NC(=O)[C@H]2CC[C@H]3C[C@H]3N2c2ncccn2)cc1-c1ncc(F)cn1 [Example 292, (1R,3R,6S)-N-[3-(5-fluoropyrimidin-2-yl)-4-methylphenyl]-2-pyrimidin-2-yl-2-azabicyclo[4.1.0]heptane-3-carboxamide] | 1 to 10 | 2 | 
